Where no end group is shown, it is not given here. The star is where a group is joined. Biotin = O=C1N[C@H]2[C@H](CS[C@H]2CCCCC(=O)*)N1
How the values were obtained:
PKA [1] = target: T1, PKA (Homo sapiens, UniProt P17612); settings: read-out: affinity for PKA; cited from earlier work
PKA [2] = target: T1, PKA; settings: 132 nM PKA, even at the highest ATP concentration applied
Procedure: The effect of ATP on the PKA-PKI binding was also evaluated using an SPR analyzer, Biacore 3000 biosensor system (Biacore, U.S.A.). The surface of a CM5 sensor chip (Biacore, Applied Biosystems, U.S.A.) was activated with N-ethyl-N′-(3-dimethylaminopropyl)carbodiimide (EDC) and N-hydroxysuccinimide (NHS), and 50 μg/mL streptavidin was applied thereto, to immobilize on the surface of sensor via an amine-coupling method. […] The mixture solutions of 132 nM PKA and varying concentrations of ATP were applied at the rate of 30 μM/min for 100 seconds, and the buffer solution was then applied for 200 seconds, to obtain sensorgrams.

## Biotin-LRRAALG [biotin-Ala-kemptide]
PKA [1]
  Kd: 10 µM
PKA [2]
  binding of PKA to immobilized peptide (SPR): not observed

— patent publication US7582471B2, “Biosensor for the detection of protein kinase A, and kit comprising the same” (Korea Institute of Science and Technology, priority 2006, dated 2009)
